# Source: patent US8642601B2, “Inhibitors of JNK” (Roche Palo Alto LLC, priority 2010, dated 2014)
# Counter-ions that a name gives are not always drawn.
# Tested on: not given
# Assay: not given
# Conditions: not given
row,melting point [°C],SMILES
1,225,"CCN1CCN(C(=O)[C@H]2CC[C@H](Nc3nccc(-n4ccc5c(OCC6CCS(=O)(=O)C6)cccc54)n3)CC2)C[C@H]1C (stereo partly drawn) (as salt: HCl) [Compound 3, (4-{4-[4-(1,1-Dioxo-tetrahydro-1λ^6-thiophen-3-ylmethoxy)-indol-1-yl]-pyrimidin-2-ylamino}-cyclohexyl)-((R)-4-ethyl-3-methyl-piperazin-1-yl)-methanone]"
2,198 to 204,"CCN1CCN(C(=O)[C@H]2CC[C@H](Nc3nccc(-n4ccc5c(OCC6CCS(=O)(=O)C6)cccc54)n3)CC2)C[C@@H]1C (stereo partly drawn) (as salt: HCl) [Compound 9, (4-{4-[4-(1,1-Dioxo-tetrahydro-1λ^6-thiophen-3-ylmethoxy)-indol-1-yl]-pyrimidin-2-ylamino}-cyclohexyl)-((S)-4-ethyl-3-methyl-piperazin-1-yl)-methanone]"
3,140 to 142,"CCCN1CC[C@@H](NC(=O)[C@H]2CC[C@H](Nc3nccc(-n4ccc5c(OCCCS(C)(=O)=O)cccc54)n3)CC2)C1 (as salt: HCl) [Compound 11, 4{4-[4-(3-Methanesulfonyl-propoxy)-indol-1-yl]-pyrimidin-2-ylamino}-cyclohexanecarboxylic acid ((R)-1-propyl-pyrrolidin-3-yl)-amide]"
4,160 to 162,"CCN1CC[C@H](NC(=O)[C@H]2CC[C@H](Nc3nccc(-n4ccc5c(OCCCS(C)(=O)=O)cccc54)n3)CC2)C1 (as salt: HCl) [Compound 13, 4-{4-[4-(3-Methanesulfonyl-propoxy)-indol-1-yl]-pyrimidin-2-ylamino}-cyclohexanecarboxylic acid ((S)-1-ethyl-pyrrolidin-3-yl)-amide]"

# Tested on: T1, JNK
# T1 construct: Human JNK2α2 assay contains 1 nM enzyme; Human JNK1α1 assay contains 2 nM enzyme
# Assay: JNK Assay in vitro (phosphorylation of GST-ATF2 (19-96) with [γ-33P] ATP)
# Type: biochemical
# Conditions: JNK isoform not stated for Table 1 (method describes human JNK1α1, JNK2α2, JNK3); Km concentrations of ATP and substrate
# Description: JNK activity was measured by phosphorylation of GST-ATF2 (19-96) with [γ-^33P] ATP. The enzyme reaction was conducted at Km concentrations of ATP and the substrate at final volume of 40 μl in buffer containing 25 mM HEPES, pH 7.5, 2 mM dithiothreitol, 150 mM NaCl, 20 mM MgCl2, 0.001% Tween® 20, 0.1% BSA and 10% DMSO. Human JNK2α2 assay contains 1 nM enzyme, 1 μM ATF2, 8 μM ATP with 1 uCi [γ-^33P] ATP. Human JNK1α1 assay contains 2 nM enzyme, 1 μM ATF2, 6 μM ATP with 1 μCi [γ-^33P] ATP. Human JNK3 (Upstate Biotech #14-501M) assay contains 2 nM enzyme, 1 μM ATF2, 4 μM ATP with 1 μCi [γ-^33P] ATP. The enzyme assay was carried out in the presence or absence of several compound concentrations. JNK and compound were pre-incubated for 10 min., followed by initiation of the enzymatic reaction by adding ATP and the substrate. The reaction mixture was incubated at 30° C. for 30 min. At the end of incubation, the reaction was terminated by transferring 25 μl of the reaction mixture to 150 μl of 10% glutathione Sepharose® slurry (Amersham #27-4574-01) containing 135 mM EDTA. The reaction product was captured on the affinity resin, and washed on a filtration plate (Millipore, MABVNOB50) with phosphate buffered saline for six times to remove free radionucleotide. The incorporation of ^33P into ATF2 was quantified on a microplate scintillation counter (Packard Topcount). Compound inhibition potency on JNK was measured by IC50 value generated from ten concentration inhibition curves fitted into the 3-parameter model: % inhibition=Maximum/(1+(IC50/[Inhibitor])^slope). Data were analyzed on Microsoft Excel for parameter estimation.
row,SMILES,IC50 [nM]
1,"CCN1CCC[C@@H](NC(=O)[C@H]2CC[C@H](Nc3nccc(-n4ccc5c(OCCCS(C)(=O)=O)cccc54)n3)CC2)C1 (stereo in doubt) [Compound 17, 4-{4-[4-(3-Methanesulfonyl-propoxy)-indol-1-yl]-pyrimidin-2-ylamino}-cyclohexanecarboxylic acid ((S)-1-ethyl-piperidin-3-yl)-amide]",116
2,"CCOC(=O)[C@@H]1CCCN(C(=O)[C@H]2CC[C@H](Nc3nccc(-n4ccc5c(OCCCS(C)(=O)=O)cccc54)n3)CC2)C1 [Compound 2, (R)-1-(4-{4-[4-(3-Methanesulfonyl-propoxy)-indol-1-yl]-pyrimidin-2-ylamino}-cyclohexanecarbonyl)-piperidine-3-carboxylic acid ethyl ester]",73.4
3,"CCN1CCN(C(=O)[C@H]2CC[C@H](Nc3nccc(-n4ccc5c(OCC6CCS(=O)(=O)C6)cccc54)n3)CC2)C[C@H]1C (stereo partly drawn) [Compound 3, (4-{4-[4-(1,1-Dioxo-tetrahydro-1λ^6-thiophen-3-ylmethoxy)-indol-1-yl]-pyrimidin-2-ylamino}-cyclohexyl)-((R)-4-ethyl-3-methyl-piperazin-1-yl)-methanone]",45.9
4,"CCN1CCN(C(=O)[C@H]2CC[C@H](Nc3nccc(-n4ccc5c(OCC6CCS(=O)(=O)C6)cccc54)n3)CC2)C[C@@H]1C (stereo partly drawn) [Compound 9, (4-{4-[4-(1,1-Dioxo-tetrahydro-1λ^6-thiophen-3-ylmethoxy)-indol-1-yl]-pyrimidin-2-ylamino}-cyclohexyl)-((S)-4-ethyl-3-methyl-piperazin-1-yl)-methanone]",19.4
5,"CCN1CC[C@H](NC(=O)[C@H]2CC[C@H](Nc3nccc(-n4ccc5c(OCCCS(C)(=O)=O)cccc54)n3)CC2)C1 [Compound 13, 4-{4-[4-(3-Methanesulfonyl-propoxy)-indol-1-yl]-pyrimidin-2-ylamino}-cyclohexanecarboxylic acid ((S)-1-ethyl-pyrrolidin-3-yl)-amide]",336
6,"CN(CC1CCCCN1C)C(=O)[C@H]1CC[C@H](Nc2nccc(-n3ccc4c(OCCCS(C)(=O)=O)cccc43)n2)CC1 (some centres unmarked) [Compound 19, 4-{4-[4-(3-Methanesulfonyl-propoxy)-indol-1-yl]-pyrimidin-2-ylamino}-cyclohexanecarboxylic acid methyl-(1-methyl-piperidin-2-ylmethyl)-amide]",79.6
7,"CS(=O)(=O)CCCOc1cccc2c1ccn2-c1ccnc(N[C@H]2CC[C@H](C(=O)N3C[C@@H]4C[C@@H]3CN4)CC2)n1 [Compound 21, (1R,4S)-2,5-Diaza-bicyclo[2.2.1]hept-2-yl-(4-{4-[4-(3-methanesulfonyl-propoxy)-indol-1-yl]-pyrimidin-2-ylamino}-cyclohexyl)-methanone]",145
8,CN1C2CCC1CN(C(=O)[C@H]1CC[C@H](Nc3nccc(-n4ccc5c(OCCCS(C)(=O)=O)cccc54)n3)CC1)C2 [Compound 22],99.8
9,"C[C@@H]1CN(C(=O)[C@H]2CC[C@H](Nc3nccc(-n4ncc5c(OCCCS(C)(=O)=O)cccc54)n3)CC2)CCN1 [Compound 24, (4-{4-[4-(3-Methanesulfonyl-propoxy)-indazol-1-yl]-pyrimidin-2-ylamino}-cyclohexyl)-((R)-3-methyl-piperazin-1-yl)-methanone]",59.7
10,"C[C@H]1CN(C(=O)[C@H]2CC[C@H](Nc3nccc(-n4ncc5c(OCC6CCS(=O)(=O)C6)cccc54)n3)CC2)CCN1 (stereo partly drawn) [Compound 25, (4-{4-[4-(1,1-Dioxo-tetrahydro-1λ^6-thiophen-3-ylmethoxy)-indazol-1-yl]-pyrimidin-2-ylamino}-cyclohexyl)-((S)-3-methyl-piperazin-1-yl)-methanone]",45.8
11,"CCOC1CC2CCC(C1)N2C(=O)[C@H]1CC[C@H](Nc2nccc(-n3ccc4c(OCCCS(C)(=O)=O)cccc43)n2)CC1 (some centres unmarked) [Compound 26, (3-Ethoxy-8-aza-bicyclo[3.2.1]oct-8-yl)-(4-{4-[4-(3-methanesulfonyl-propoxy)-indol-1-yl]-pyrimidin-2-ylamino}-cyclohexyl)-methanone; compound with formic acid]",89.4
12,"CCN1CCCC(NC(=O)[C@H]2CC[C@H](Nc3nccc(-n4ccc5c(OCC6CCS(=O)(=O)C6)cccc54)n3)CC2)C1 (some centres unmarked) [Compound 29, 4-{4-[4-(1,1-Dioxo-tetrahydro-1λ^6-thiophen-3-ylmethoxy)-indol-1-yl]-pyrimidin-2-ylamino}-cyclohexanecarboxylic acid (1-ethyl-piperidin-3-yl)-amide]",92.8
13,"CCN1CCC[C@H]1CNC(=O)[C@H]1CC[C@H](Nc2nccc(-n3ccc4c(OCCCS(C)(=O)=O)cccc43)n2)CC1 [Compound 30, 4-{4-[4-(3-Methanesulfonyl-propoxy)-indol-1-yl]-pyrimidin-2-ylamino}-cyclohexanecarboxylic acid ((S)-1-ethyl-pyrrolidin-2-ylmethyl)-amide]",85.4

# Results, then the compound that gave them:
row,IC50 [nM],SMILES
1,89.8,"CCCN1CCC[C@H](NC(=O)[C@H]2CC[C@H](Nc3nccc(-n4ccc5c(OCCCS(C)(=O)=O)cccc54)n3)CC2)C1 (stereo in doubt) [Compound 14, 4-{4-[4-(3-Methanesulfonyl-propoxy)-indol-1-yl]-pyrimidin-2-ylamino}-cyclohexanecarboxylic acid ((R)-1-propyl-piperidin-3-yl)-amide]"
2,164,"CCCN1CC[C@@H](NC(=O)[C@H]2CC[C@H](Nc3nccc(-n4ccc5c(OCCCS(C)(=O)=O)cccc54)n3)CC2)C1 [Compound 11, 4{4-[4-(3-Methanesulfonyl-propoxy)-indol-1-yl]-pyrimidin-2-ylamino}-cyclohexanecarboxylic acid ((R)-1-propyl-pyrrolidin-3-yl)-amide]"
3,81,"CCN1CCCC1CNC(=O)[C@H]1CC[C@H](Nc2nccc(-n3ccc4c(OCCCS(C)(=O)=O)cccc43)n2)CC1 (some centres unmarked) [Compound 20, 4-{4-[4-(3-Methanesulfonyl-propoxy)-indol-1-yl]-pyrimidin-2-ylamino}-cyclohexanecarboxylic acid (1-ethyl-pyrrolidin-2-ylmethyl)-amide]"
4,60.6,"C[C@H]1CN(C(=O)[C@H]2CC[C@H](Nc3nccc(-n4ncc5c(OCC6CCS(=O)(=O)C6)cccc54)n3)CC2)CCN1 (stereo partly drawn) [Compound 27, (4-{4-[4-(1,1-Dioxo-tetrahydro-1λ^6-thiophen-3-ylmethoxy)-indazol-1-yl]-pyrimidin-2-ylamino}-cyclohexyl)-((S)-3-methyl-piperazin-1-yl)-methanone]"
5,97.8,"CC1(C)CN(C(=O)[C@H]2CC[C@H](Nc3nccc(-n4ccc5c(OCC6CCS(=O)(=O)C6)cccc54)n3)CC2)CCN1 (some centres unmarked) [Compound 28, (3,3-Dimethyl-piperazin-1-yl)-(4-{4-[4-(1,1-dioxo-tetrahydro-1λ^6-thiophen-3-ylmethoxy)-indol-1-yl]-pyrimidin-2-ylamino}-cyclohexyl)-methanone]"
6,97.7,"CCN1CCC[C@@H]1CNC(=O)[C@H]1CC[C@H](Nc2nccc(-n3ccc4c(OCCCS(C)(=O)=O)cccc43)n2)CC1 [Compound 31, 4-{4-[4-(3-Methanesulfonyl-propoxy)-indol-1-yl]-pyrimidin-2-ylamino}-cyclohexanecarboxylic acid ((R)-1-ethyl-pyrrolidin-2-ylmethyl)-amide]"
